Data on 22 compounds can be found in patent publication US20160257697A1, “THIOPHENE-SUBSTITUTED TETRACYCLIC COMPOUNDS AND METHODS OFUSE THEREOF FOR THE TREATMENT OF VIRAL DISEASES” (priority 2013, published 2016).

Structures are written as SMILES.

In one experiment the test system is HCV replicon 1A. Put plainly: microbe, parasite or virus in culture. The conditions noted are these: Hepatitis C virus, replicon 1A; Replicon Assay A. Type of experiment: cell-based, Hepatitis C virus (HCV). As for the experimental part: (§1) To measure cell-based anti-HCV activity of compounds of the present invention, two complimentary assays were employed using various replicons. In the first assay (“Replicon Assay A”), replicon cells were seeded at 2000 cells/well in 384-well 384-well flat bottom tissue culture treated clear bottom plate (Corning 3707) in the presence of the test compound. […] The final concentration of DMSO was 0.5%. Fetal bovine serum was 5%, in the assay media. Cells were harvested on day 3 by removing media and washing the cells with a suitable wash buffer. The cells are lysed with the addition of 1× Qiagen lysis buffer (Cat #1062731). The replicon RNA level was measured using real time PCR (TaqMan® EZ RT-PCR, Applied Biosystems 403028) with the following primers and probes: […]
(§2) Cyclophilin RNA was used as endogenous control and was amplified in the same reaction as NS5B (multiplex PCR). The real-time RT-PCR reactions were run on ABI PRISM 7900HT Sequence Detection System using the following program: 50° C. for 2 minutes, 60° C. for 30 minutes, 95° C. for 5 minutes, 40 cycles of 94° C. for 20 sec, 55° C. for 1 minutes.
(§3) The amount of HCV replicon RNA per cell is quantified using a linear regression curve for a known nanogram (ng) amount of HCV replicon total RNA. This is established by plotting the Cycle Threshold values (Ct) from the Neo probe and primer set versus the log (ng) for each HCV replicon total RNA standard. The amount of HCV RNA for each replicon sample is calculated by taking the sample's Ct value, minus the line intercept, divided by the slope of the line. Similarly, the amount of Cyclophilin mRNA per cell is also quantified using a linear regression curve for a known nanogram (ng) amount of HCV replicon total RNA. Again, this is established by plotting the Cycle Threshold values (Ct) from the Cyclophilin probe and primer set versus the log (ng) for each HCV replicon total RNA standard.
(§4) Data for replicons 1A, 1AY93H and 2B were obtained using Replicon Assay A and data for replicons 1AQ30D and 1B were obtained using Replicon Assay B.
For the compound `COC(=O)N[C@H](C(=O)N1CCC[C@H]1c1ncc(-c2cc(F)c3c(c2)OC(c2cc4c(s2)C(C)(C)CC4)n2c-3cc3cc(-c4cnc([C@@H]5CCCN5C(=O)[C@@H](NC(=O)OC)C(C)C)[nH]4)ccc32)[nH]1)C(C)C` (single isomer, unassigned) [Compound 391], the IC50 is 0.0035 nM.

Staying with this experiment, now noted: replicon 1A; Replicon Assay A.
`COC(=O)NC(C(=O)N1CCC[C@H]1c1ncc(-c2ccc3c(c2)cc2n3C(c3ccc(C4CC4)s3)Oc3cc(-c4cnc([C@@H]5CCCN5C(=O)[C@@H](NC(=O)OC)C(C)C)[nH]4)cc(F)c3-2)[nH]1)C1CN(C(=O)C2CC2)C1` (single isomer, unassigned) [Compound 270] gave an IC50 of 0.62 nM. For the compound `CCc1ccc(C2Oc3cc(-c4cnc([C@@H]5CCCN5C(=O)C(NC(=O)OC)C5CCOC(C)(C)C5)[nH]4)cc(F)c3-c3cc4cc(-c5cnc([C@@H]6CCCN6C(=O)C(NC(=O)OC)C6CCOC(C)(C)C6)[nH]5)ccc4n32)s1` (single isomer, unassigned) [Compound 294], the IC50 was over 1.67 nM.

`CCc1ccc(C2Oc3cc(-c4cnc([C@@H]5CCCN5C(=O)C(NC(=O)OC)C5CCOC(C)(C)C5)[nH]4)cc(F)c3-c3cc4cc(-c5cnc([C@@H]6CCCN6C(=O)[C@@H](NC(=O)OC)C(C)C)[nH]5)ccc4n32)s1` (single isomer, unassigned) [Compound 161] gave an IC50 of 0.0586 nM.

`CCc1ccc(C2Oc3cc(-c4cnc([C@@H]5CCCN5C(=O)C(NC(=O)OC)C5CCOC(C)(C)C5)[nH]4)cc(F)c3-c3cc4cc(-c5cnc([C@@H]6CCCN6C(=O)C(NC(=O)OC)C6CCOC(C)(C)C6)[nH]5)ccc4n32)s1` (single isomer, unassigned) [Compound 293] yielded an IC50 of over 1.67 nM. On the same count and under the same terms, then `COC(=O)NC(C(=O)N1CCC[C@H]1c1ncc(-c2ccc3c(c2)cc2n3C(c3ccc(C4CC4)s3)Oc3cc(-c4cnc([C@@H]5CCCN5C(=O)[C@@H](NC(=O)OC)C(C)C)[nH]4)cc(F)c3-2)[nH]1)C1CN(C(=O)C2CC2)C1` (single isomer, unassigned) [Compound 268], with 0.045 nM; and `CCc1ccc(C2Oc3cc(-c4cnc([C@@H]5CCCN5C(=O)C(NC(=O)OC)C5C[C@@H](C)O[C@@H](C)C5)[nH]4)cc(F)c3-c3cc4cc(-c5cnc([C@@H]6CCCN6C(=O)[C@@H](NC(=O)OC)C(C)C)[nH]5)ccc4n32)s1` (single isomer, unassigned) [Compound 155], with 0.167 nM.

`COC(=O)NC(C(=O)N1CCC[C@H]1c1ncc(-c2cc(F)c3c(c2)OC(c2ccc(C4CC4)s2)n2c-3cc3cc(-c4cnc([C@@H]5CCCN5C(=O)C(NC(=O)OC)C5C[C@@H](C)O[C@@H](C)C5)[nH]4)ccc32)[nH]1)C1C[C@@H](C)O[C@@H](C)C1` (single isomer, unassigned) [Compound 302]: the concentration for half-maximal inhibition (IC50) is over 13 nM.

In a further experiment the test system is HCV replicon 2B. Put plainly: microbe, parasite or virus in culture. As to conditions: Hepatitis C virus, read-out: 2B IC50 (nM), replicon 2B; Replicon Assay A. The class given is cell-based, Hepatitis C virus (HCV). As for the experimental part:
as §1, §2, §3, §4
`COC(=O)NC(C(=O)N1CCC[C@H]1c1ncc(-c2ccc3c(c2)cc2n3C(c3cc4c(s3)CCC4)Oc3cc(-c4cnc([C@@H]5CCCN5C(=O)[C@@H](NC(=O)OC)C(C)C)[nH]4)cc(F)c3-2)[nH]1)C1C[C@@H](C)O[C@@H](C)C1` (single isomer, unassigned) [Compound 204]: the IC50 was 0.26 nM.

Staying with this experiment, now noted: Hepatitis C virus, read-out: 2B IC50, HCV replicon 2B; Replicon Assay A.
On to `COC(=O)NC(C(=O)N1CCC[C@H]1c1ncc(-c2ccc3c(c2)cc2n3C(c3ccc(CC(F)(F)F)s3)Oc3cc(-c4cnc([C@@H]5CCCN5C(=O)[C@@H](NC(=O)OC)C(C)C)[nH]4)cc(F)c3-2)[nH]1)C1CCOC(C)(C)C1` (single isomer, unassigned) [Compound 425], for which the IC50 was 0.011 nM.

Take `COC(=O)NC(C(=O)N1CCC[C@H]1c1ncc(-c2ccc3c(c2)cc2n3C(c3ccc(C4CC4)s3)Oc3cc(-c4cnc([C@@H]5CCCN5C(=O)[C@@H](NC(=O)OC)C(C)C)[nH]4)cc(C)c3-2)[nH]1)C1CCOC(C)(C)C1` (single isomer, unassigned) [Compound 565]: the half-inhibitory concentration (IC50) was determined as 0.17 nM.

Staying with this experiment, now noted: read-out: 2B IC50; HCV replicon 2B; Replicon Assay A.
Turning to `CCCc1ccc(C2Oc3cc(-c4cnc([C@@H]5CCCN5C(=O)[C@@H](NC(=O)OC)C(C)C)[nH]4)cc(F)c3-c3cc4cc(-c5cnc([C@@H]6CCCN6C(=O)C(NC(=O)OC)C6CCOC(C)(C)C6)[nH]5)ccc4n32)s1` (single isomer, unassigned) [Compound 566], the IC50 was 0.31 nM. Still for that read-out and setting: then `C=C(C)C1Oc2cc(-c3cnc([C@@H]4CCCN4C(=O)[C@@H](N)C(C)C)[nH]3)cc(F)c2-c2cc3cc(-c4cnc([C@@H]5C[C@H]6C[C@H]6N5C(C)=O)[nH]4)ccc3n21` (single isomer, unassigned) [Compound 572], with 0.031 nM. On the same count and under the same terms, then `CCCc1ccc(C2Oc3cc(-c4cnc([C@@H]5CCCN5C(=O)[C@@H](NC(=O)OC)C(C)C)[nH]4)cc(F)c3-c3cc4cc(-c5cnc([C@@H]6CCCN6C(=O)C(NC(=O)OC)C6CCOC(C)(C)C6)[nH]5)ccc4n32)s1` (single isomer, unassigned) [Compound 567], with 0.011 nM. Same read-out and setting: then `COC(=O)NC(C(=O)N1[C@@H]2C[C@@H]2C[C@H]1c1ncc(-c2ccc3c(c2)cc2n3C(c3cc4ccccc4s3)Oc3cc(-c4cnc([C@@H]5CCCN5C(=O)[C@@H](NC(=O)OC)C(C)C)[nH]4)cc(F)c3-2)[nH]1)C1C[C@@H](C)O[C@@H](C)C1` (single isomer, unassigned) [Compound 646], with 0.173 nM; and `CCCc1ccc(C2Oc3cc(-c4cnc([C@@H]5CCCN5C(=O)[C@@H](NC(=O)OC)C(C)C)[nH]4)cc(F)c3-c3cc4cc(-c5cnc([C@@H]6C[C@H]7C[C@H]7N6C(=O)[C@@H](NC(=O)OC)C(C)C)[nH]5)ccc4n32)s1` (single isomer, unassigned) [Compound 561], with 0.23 nM.

As to `C=C(C)C1Oc2cc(-c3cnc([C@@H]4CCCN4C(=O)[C@@H](N)C(C)C)[nH]3)cc(F)c2-c2cc3cc(-c4cnc([C@@H]5C[C@H]6C[C@H]6N5C(C)=O)[nH]4)ccc3n21` (single isomer, unassigned) [Compound 571], the half-maximal inhibitory concentration (IC50) stood at 0.087 nM. Still for that read-out and setting: then `CCCc1ccc(C2Oc3cc(-c4cnc([C@@H]5CCCN5C(=O)[C@@H](NC(=O)OC)C(C)C)[nH]4)cc(F)c3-c3cc4cc(-c5cnc([C@@H]6C[C@H]7C[C@H]7N6C(=O)[C@@H](NC(=O)OC)C(C)C)[nH]5)ccc4n32)s1` (single isomer, unassigned) [Compound 562], with 0.754 nM.

Staying with this experiment, now noted: read-out: 2B IC50; replicon 2B; Replicon Assay A.
Regarding `COC(=O)N[C@H](C(=O)N1CCC[C@H]1c1ncc(-c2cc(F)c3c(c2)OC(c2ccc(C4CC4(F)F)s2)n2c-3cc3cc(-c4cnc([C@@H]5CCCN5C(=O)[C@@H](NC(=O)OC)C(C)C)[nH]4)ccc32)[nH]1)C(C)C` (single isomer, unassigned) [Compound 119], the IC50 came out at 0.073 nM.

Take `COC(=O)N[C@H](C(=O)N1CCC[C@H]1c1ncc(-c2cc(F)c3c(c2)OC(c2ccc(C4CC4(F)F)s2)n2c-3cc3cc(-c4cnc([C@@H]5CCCN5C(=O)[C@@H](NC(=O)OC)C(C)C)[nH]4)ccc32)[nH]1)C(C)C` (single isomer, unassigned) [Compound 116]: the IC50 is 1.85 nM. Same read-out and setting: then `COC(=O)N[C@H](C(=O)N1CCC[C@H]1c1ncc(-c2cc(F)c3c(c2)OC(c2ccc(C4CC4(F)F)s2)n2c-3cc3cc(-c4cnc([C@@H]5CCCN5C(=O)[C@@H](NC(=O)OC)C(C)C)[nH]4)ccc32)[nH]1)C(C)C` (single isomer, unassigned) [Compound 117], with 0.028 nM. As to `COC(=O)NC(C(=O)N1[C@@H]2C[C@@H]2C[C@H]1c1ncc(-c2ccc3c(c2)cc2n3C(c3ccc(C(F)F)s3)Oc3cc(-c4cnc([C@@H]5CCCN5C(=O)[C@@H](NC(=O)OC)C(C)C)[nH]4)cc(F)c3-2)[nH]1)C1C[C@@H](C)O[C@@H](C)C1` (single isomer, unassigned) [Compound 285], the IC50 turned out to be 0.79 nM.
